In PMC10935581 (Biochemistry, 2023):
“Also recorded” adds a separate entry of the source. Where two headings read alike, the source gives them in different places.

Columns and labels:
NAMPT [1] = target: T1, NAMPT (Homo sapiens, UniProt P43490); assay: Coupled primary NAMPT enzyme assay; type: biochemical; settings: for HTS outcome (increase of NAMPT enzyme activity): screen of ChemDiv and Microsource Spectrum libraries
NAMPT [2] = target: T1, NAMPT; assay: Fluorescence polarization binding assay
NAMPT [3] = target: T1, NAMPT; assay: Uncoupled ATPase reaction of NAMPT; type: biochemical; settings: absence of PRPP
[4] = system: THP-1 human leukemic monocyte cell line; assay: Cellular NAD+ by miniaturized NADglo assay; type: cell-based; settings: 24 h incubation
NAMPT [5] = target: T1, NAMPT; assay: Orthogonal NAMPT endpoint assay; type: biochemical
NAMPT [6] = target: T1, NAMPT; settings: cited from earlier work

T1 sequence (P43490 whole entry): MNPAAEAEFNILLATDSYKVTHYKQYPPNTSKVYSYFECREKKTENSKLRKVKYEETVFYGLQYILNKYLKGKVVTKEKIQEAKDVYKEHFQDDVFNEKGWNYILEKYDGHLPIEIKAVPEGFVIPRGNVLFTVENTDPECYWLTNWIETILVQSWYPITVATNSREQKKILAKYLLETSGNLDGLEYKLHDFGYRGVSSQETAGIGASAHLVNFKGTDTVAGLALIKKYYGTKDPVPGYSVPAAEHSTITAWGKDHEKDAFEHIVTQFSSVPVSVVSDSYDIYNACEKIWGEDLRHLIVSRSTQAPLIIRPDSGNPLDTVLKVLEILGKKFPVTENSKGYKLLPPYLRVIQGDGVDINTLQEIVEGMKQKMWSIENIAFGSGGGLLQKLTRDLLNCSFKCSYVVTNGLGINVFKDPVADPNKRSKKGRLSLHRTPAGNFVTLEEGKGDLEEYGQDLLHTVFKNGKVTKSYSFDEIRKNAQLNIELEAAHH

O=c1c(-c2ccc(O)cc2)coc2cc(O)cc(O)c12 [genestein]
HTS outcome (increase of NAMPT enzyme activity) (NAMPT [1]): validated hits

C[C@@H]1O[C@@H](Oc2c(-c3ccc(O)c(O)c3)oc3cc(O)cc(O)c3c2=O)[C@H](O)[C@H](O)[C@H]1O [quercitrin]
Maximal activation of NAMPT relative to vehicle control (NAMPT [1]): high activation at higher concentrations
Effect on KM(ATP) (NAMPT [1]; rate increased): without significant effect
HTS outcome (increase of NAMPT enzyme activity) (NAMPT [1]): validated hits
Binding to NAMPT (in words) (NAMPT [2]): weak binding NAMPT ligand
Kd (NAMPT [2]): 16 µM
Effect on uncoupled ATP consumption (NAMPT [3]): increase uncoupled ATP consumption
Effect on cellular NAD+ (in words) [4]: inactive in cells
Effect on cellular NAD+ (in words) ([4]; listed as Quercitrin): inactive

C/C=C(/C(=C/C)c1ccc(O)cc1)c1ccc(O)cc1 [dienestrol]
HTS outcome (increase of NAMPT enzyme activity) (NAMPT [1]): validated hits

O=C(NCc1ccncc1)Nc1ccc(S(=O)(=O)N2CC3CCC(C2)O3)cc1 [SBI-0797812]
Effect on ATP dependence of NAMPT (KM(ATP), KI(ATP)) (NAMPT [5]): significant left-shift in KM(ATP); also recorded: dramatic left-shift in both KM and KI for ATP
NAMPT activity relative to vehicle control (NAMPT [5]; ATP 4 mM, NAM 3 or 300 μM, PRPP 40 μM): Inhibition of NAMPT activity
NAMPT activation (NAMPT [5]; Fig. 2D): confirmed to activate NAMPT
KI(ATP) in presence of activator (NAMPT [5]; left-shifted): < 1000 µM
Effect on cellular NAD+ (in words) [4]: reducing cellular levels of NAD^+; also recorded: inhibited both NAMPT activity and NAD^+ formation in THP-1 cells

NC(=O)c1cccnc1 [NAM, nicotinamide]
Km (NAMPT [1]; read-out: Apparent KM for NAM, no activator): ~0.000145 mM

COc1ccc(CC(=O)c2ccc(O)cc2O)cc1 [onenetin]
HTS outcome (increase of NAMPT enzyme activity) (NAMPT [1]): validated hits

NC(=O)c1ccc[n+]([C@@H]2O[C@H](COP(=O)([O-])OP(=O)(O)OC[C@H]3O[C@@H](n4cnc5c(N)ncnc54)[C@H](O)[C@@H]3O)[C@@H](O)[C@H]2O)c1 [NAD^+, Nicotinamide adenine dinucleotide]
Ki (NAMPT [6]; read-out: KI for inhibition of NAMPT activity): 2 µM

O=c1c(O)c(-c2ccc(O)c(O)c2)oc2cc(O)cc(O)c12 [quercitin]
NAMPT activation in primary assay (NAMPT [1]; at ≤ 40 μM): devoid of activity

COc1cccc(NCC(F)Cn2c3ccc(Br)cc3c3cc(Br)ccc32)c1 (stereo not drawn) [P7C3-A20]
Binding to NAMPT (in words) (NAMPT [2]): did not show any NAMPT binding activity

Nc1ncnc2c1ncn2[C@@H]1O[C@H](COP(=O)(O)OP(=O)(O)OP(=O)(O)O)[C@@H](O)[C@H]1O [ATP]
Km (NAMPT [6]; read-out: KM(ATP)): 7 mM
